Measurements published in patent US8778941B2, “TRPM8 antagonists and their use in treatments” (AMGEN Inc., priority 2011, dated 2014).

Molecular target: T1, human TRPM8 (Homo sapiens, UniProt Q7Z2W7)
T1 construct: expressed in transfected cells; host or cells: Chinese hamster ovary (CHO) cells, T-REx tetracycline-inducible expression system (Invitrogen), co-transfected with pcDNA3.1 jellyfish aequorin
Assay: Luminescence readout assay for measuring intracellular calcium (aequorin), hTRPM8 antagonism
Type: cell-based
Conditions: CHO cell line expressing human TRPM8 and aequorin; activation by icilin, L-menthol or cold buffer (table does not say which)

T1 sequence (Q7Z2W7 whole entry): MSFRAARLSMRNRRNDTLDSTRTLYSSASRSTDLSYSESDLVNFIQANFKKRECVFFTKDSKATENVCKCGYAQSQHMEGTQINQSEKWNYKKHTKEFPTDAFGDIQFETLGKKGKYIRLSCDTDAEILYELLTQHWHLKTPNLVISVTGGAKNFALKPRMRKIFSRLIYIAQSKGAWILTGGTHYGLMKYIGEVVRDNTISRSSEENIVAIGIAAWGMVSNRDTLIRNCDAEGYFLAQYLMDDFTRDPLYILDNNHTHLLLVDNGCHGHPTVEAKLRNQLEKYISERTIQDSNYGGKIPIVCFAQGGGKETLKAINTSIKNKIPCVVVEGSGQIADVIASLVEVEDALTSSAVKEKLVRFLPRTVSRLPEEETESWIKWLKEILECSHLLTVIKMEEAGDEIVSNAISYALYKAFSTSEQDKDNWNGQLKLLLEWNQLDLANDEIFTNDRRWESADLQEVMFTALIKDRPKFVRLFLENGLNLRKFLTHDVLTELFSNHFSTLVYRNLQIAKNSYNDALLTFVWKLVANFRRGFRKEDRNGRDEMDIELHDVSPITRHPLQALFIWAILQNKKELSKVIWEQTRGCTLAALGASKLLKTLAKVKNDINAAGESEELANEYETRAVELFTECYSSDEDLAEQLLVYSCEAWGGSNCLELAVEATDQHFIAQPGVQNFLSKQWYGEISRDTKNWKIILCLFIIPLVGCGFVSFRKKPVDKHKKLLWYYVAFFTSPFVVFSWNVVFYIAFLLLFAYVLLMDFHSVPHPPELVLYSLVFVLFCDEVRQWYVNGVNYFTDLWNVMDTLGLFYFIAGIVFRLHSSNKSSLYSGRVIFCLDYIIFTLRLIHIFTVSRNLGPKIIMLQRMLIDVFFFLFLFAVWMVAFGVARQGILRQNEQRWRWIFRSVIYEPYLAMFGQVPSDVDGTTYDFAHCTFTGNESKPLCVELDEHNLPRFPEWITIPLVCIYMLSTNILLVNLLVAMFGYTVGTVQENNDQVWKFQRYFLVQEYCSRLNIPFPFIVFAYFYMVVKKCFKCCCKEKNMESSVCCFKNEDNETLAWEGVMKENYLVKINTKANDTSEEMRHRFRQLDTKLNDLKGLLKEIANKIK

IC50 [nM]	Compound
216	O=C(Nc1cccnc1)NC(c1ccc(C(F)(F)F)nc1)c1ncccc1C(F)(F)F (stereo not drawn) [Example 25, 1-(pyridin-3-yl)-3-((3-(trifluoro-methyl)-pyridin-2-yl)-(6-(trifluoro-methyl)-pyridin-3-yl)-methyl)urea (2,2,2-trifluoro-acetate)]
633	CC(NC(=O)N[C@@H](c1ccc(C(F)(F)F)cc1)c1ncccc1C(F)(F)F)c1ccc(Br)cc1 (stereo partly drawn) [Example 101, 1-(1-(4-bromophenyl)-ethyl)-3-((S)-(4-(trifluoro-methyl)-phenyl)(3-(trifluoro-methyl)-pyridin-2-yl)-methyl)urea (2,2,2-trifluoro-acetate)]
676	O=C(NC1CCOC1)N[C@@H](c1ccc(C(F)(F)F)cc1)c1ncccc1C(F)(F)F (stereo partly drawn) [Example 56, 1-(tetrahydrofuran-3-yl)-3-((S)-(4-(trifluoro-methyl)-phenyl)(3-(trifluoro-methyl)-pyridin-2-yl)-methyl)urea]
494	Cc1cc(C)cc(NC(=O)N[C@@H](c2ccc(C(F)(F)F)cc2)c2ncccc2C(F)(F)F)c1 [Example 106, (S)-1-(3,5-dimethylphenyl)-3-((4-(trifluoro-methyl)-phenyl)(3-(trifluoro-methyl)-pyridin-2-yl)-methyl)urea (2,2,2-trifluoro-acetate)]
1500	CCOC(=O)CNC(=O)N[C@@H](c1ccc(C(F)(F)F)cc1)c1ncccc1C(F)(F)F [Example 38, (S)-ethyl 2-(3-((4-(trifluoro-methyl)-phenyl)(3-(trifluoro-methyl)-pyridin-2-yl)-methyl)-ureido)acetate (2,2,2-trifluoro-acetate)]
255	O=C(Nc1cccnc1)NC(c1cc(F)cc(Cl)c1)c1ncccc1C(F)(F)F (stereo not drawn) [Example 23, 1-((3-chloro-5-fluoro-phenyl)(3-(trifluoro-methyl)-pyridin-2-yl)-methyl)-3-(pyridin-3-yl)-urea (2,2,2-trifluoro-acetate)]
884	COC(=O)[C@@H](NC(=O)N[C@@H](c1ccc(C(F)(F)F)cc1)c1ncccc1C(F)(F)F)C(C)C [Example 96, (S)-methyl 3-(methyl-2-(3-((S)-(4-(trifluoro-methyl)-phenyl)(3-(trifluoro-methyl)-pyridin-2-yl)-methyl)-ureido)-butanoate (2,2,2-trifluoro-acetate)]
905	CCOC(=O)CCNC(=O)N[C@@H](c1ccc(C(F)(F)F)cc1)c1ncccc1C(F)(F)F [Example 66, (S)-ethyl 3-(3-((4-(trifluoro-methyl)-phenyl)(3-(trifluoro-methyl)-pyridin-2-yl)-methyl)-ureido)-propanoate (2,2,2-trifluoro-acetate)]
115	CCCC[C@H](C)NC(=O)N[C@@H](c1ccc(C(F)(F)F)cc1)c1ncccc1C(F)(F)F [Example 83, 1-((S)-hexan-2-yl)-3-((S)-(4-(trifluoro-methyl)-phenyl)(3-(trifluoro-methyl)-pyridin-2-yl)-methyl)urea (2,2,2-trifluoro-acetate)]
68	CC(C)OC(=O)N[C@@H](c1ccc(OC(F)(F)F)c(F)c1)c1ncccc1F [Example 175, (S)-isopropyl ((3-fluoro-4-(trifluoromethoxy)phenyl)(3-fluoropyridin-2-yl)methyl)carbamate]
98	O=C(Nc1ccc(F)cc1)N[C@@H](c1ccc(C(F)(F)F)cc1)c1ncccc1C(F)(F)F [Example 47, (S)-1-(4-fluorophenyl)-3-((4-(trifluoro-methyl)-phenyl)(3-(trifluoro-methyl)-pyridin-2-yl)-methyl)urea]
767	COc1cccc([C@H](C)NC(=O)N[C@@H](c2ccc(C(F)(F)F)cc2)c2ncccc2C(F)(F)F)c1 [Example 84, 1-((S)-1-(3-methoxy-phenyl)ethyl)-3-((S)-(4-(trifluoro-methyl)-phenyl)(3-(trifluoro-methyl)-pyridin-2-yl)-methyl)urea (2,2,2-trifluoro-acetate)]
4080	O=C(Nc1cccc(Br)c1)N[C@@H](c1ccc(C(F)(F)F)cc1)c1ncccc1C(F)(F)F [Example 37, (S)-1-(3-bromophenyl)-3-((4-(trifluoro-methyl)-phenyl)(3-(trifluoro-methyl)-pyridin-2-yl)-methyl)urea (2,2,2-trifluoro-acetate)]
147	CCOC(=O)N[C@@H](c1ccc(C(F)(F)F)cc1)c1ncccc1C(F)(F)F [Example 170, (S)-Ethyl((4-(trifluoromethyl)phenyl)(3-(trifluoromethyl)-pyridin-2-yl)methyl)carbamate]
67	O=C(Nc1cccnc1)N[C@@H](c1ccc(C(F)(F)F)cc1)c1ncccc1Br [Example 28, (S)-1-((3-bromopyridin-2-yl)(4-(trifluoro-methyl)-phenyl)-methyl)-3-(pyridin-3-yl)-urea]
781	C[C@@H](NC(=O)N[C@@H](c1ccc(C(F)(F)F)cc1)c1ncccc1C(F)(F)F)c1ccccc1 [Example 70, 1-((R)-1-phenylethyl)-3-((S)-(4-(trifluoro-methyl)-phenyl)(3-(trifluoro-methyl)-pyridin-2-yl)-methyl)urea (2,2,2-trifluoro-acetate)]
2260	COc1cccc2cc([C@H](NC(=O)Nc3cccnc3)c3ncccc3C(F)(F)F)cnc12 [Example 16, (S)-1-((8-methoxy-quinolin-3-yl)-(3-(trifluoro-methyl)-pyridin-2-yl)-methyl)-3-(pyridin-3-yl)-urea]

IC50 [nM]	Compound
360	O=C(N[C@@H](c1ccc(C(F)(F)F)cc1)c1ccccn1)OCc1ccccc1 [Example 172, (S)-Benzyl(pyridin-2-yl(4-(trifluoromethyl)phenyl)methyl)-carbamate 2,2,2-trifluoroacetate]
110	O=C(NCc1ccccc1)N[C@@H](c1ccc(C(F)(F)F)cc1)c1ncccc1C(F)(F)F [Example 109, (S)-1-benzyl-3-((4-(trifluoro-methyl)-phenyl)(3-(trifluoro-methyl)-pyridin-2-yl)-methyl)urea (2,2,2-trifluoro-acetate)]
175	O=C(Nc1cccs1)N[C@@H](c1ccc(C(F)(F)F)cc1)c1ncccc1C(F)(F)F [Example 113, (S)-1-(thiophen-2-yl)-3-((4-(trifluoro-methyl)-phenyl)(3-(trifluoro-methyl)-pyridin-2-yl)-methyl)urea (2,2,2-trifluoro-acetate)]
2880	O=C(Nc1cc[nH]c(=O)c1)N[C@@H](c1ccc(C(F)(F)F)cc1)c1ncccc1F [Example 164, (S)-1-((3-fluoropyridin-2-yl)(4-(trifluoro-methyl)-phenyl)-methyl)-3-(2-oxo-1,2-dihydropyridin-4-yl)urea]
352	O=C(NC(=O)c1ccccc1)N[C@@H](c1ccc(C(F)(F)F)cc1)c1ncccc1C(F)(F)F [Example 67, (S)-N-((4-(trifluoro-methyl)-phenyl)(3-(trifluoro-methyl)-pyridin-2-yl)-methylcarbamoyl) benzamide (2,2,2-trifluoro-acetate)]
829	Cc1ccc(C)c(NC(=O)N[C@@H](c2ccc(C(F)(F)F)cc2)c2ncccc2C(F)(F)F)c1 [Example 108]
51	O=C(Nc1cccnc1)N[C@@H](c1ccc(Cl)c(Cl)c1)c1ncccc1C(F)(F)F [Example 13, (S)-1-((3,4-dichlorophenyl) (3-(trifluoro-methyl)-pyridin-2-yl)-methyl)-3-(pyridin-3-yl)-urea]
1920	COc1ccc(CCNC(=O)N[C@@H](c2ccc(C(F)(F)F)cc2)c2ncccc2C(F)(F)F)cc1OC [Example 95, (S)-1-(3,4-dimethoxy-phenethyl)-3-((4-(trifluoro-methyl)-phenyl)(3-(trifluoro-methyl)-pyridin-2-yl)-methyyl)urea (2,2,2-trifluoro-acetate)]
1930	CC(C)(C)Cc1cccnc1[C@@H](NC(=O)Nc1cccnc1)c1ccc(C(F)(F)F)cc1 [Example 62]
646	CCOC(=O)c1cccc(NC(=O)N[C@@H](c2ccc(C(F)(F)F)cc2)c2ncccc2C(F)(F)F)c1 [Example 90, (S)-ethyl 3-(3-((4-(trifluoro-methyl)-phenyl)(3-(trifluoro-methyl)-pyridin-2-yl)-methyl)-ureido)-benzoate (2,2,2-trifluoro-acetate)]
108	CCc1cccc(CC)c1NC(=O)N[C@@H](c1ccc(C(F)(F)F)cc1)c1ncccc1C(F)(F)F [Example 88, (S)-1-(2,6-diethylphenyl)-3-((4-(trifluoro-methyl)-phenyl)(3-(trifluoro-methyl)-pyridin-2-yl)-methyl)urea (2,2,2-trifluoro-acetate)]
739	O=C(NC1CCCc2ccccc21)N[C@@H](c1ccc(C(F)(F)F)cc1)c1ncccc1C(F)(F)F (stereo partly drawn) [Example 185, 1-(1,2,3,4-tetrahydro-naphthalen-1-yl)-3-((S)-(4-(trifluoromethyl)phenyl)(3-(trifluoromethyl)pyridin-2-yl)methyl)urea (2,2,2-trifluoro-acetate)]
77	O=C(Nc1cccc2ncccc12)N[C@@H](c1ccc(C(F)(F)F)cc1)c1ncccc1C(F)(F)F [Example 179, (S)-1-(Quinolin-5-yl)-3-((4-(trifluoromethyl)phenyl)(3-(trifluoromethyl)pyridin-2-yl)methyl)urea]
123	C[C@H](NC(=O)N[C@@H](c1ccc(C(F)(F)F)cc1)c1ncccc1C(F)(F)F)c1ccccc1 [Example 107, 1-((S)-1-phenylethyl)-3-((S)-(4-(trifluoro-methyl)-phenyl)(3-(trifluoro-methyl)-pyridin-2-yl)-methyl)urea (2,2,2-trifluoro-acetate)]
2280	O=C(Nc1ccc(F)cc1F)N[C@@H](c1ccc(C(F)(F)F)cc1)c1ncccc1C(F)(F)F [Example 48, (S)-1-(2,4-difluoro-phenyl)-3-((4-(trifluoro-methyl)-phenyl)(3-(trifluoro-methyl)-pyridin-2-yl)-methyl)urea]
55	O=C1Cc2cc(NC(=O)N[C@@H](c3ccc(C(F)(F)F)cc3)c3ncccc3F)ccc2N1 [Example 149]
